Literature values in article PMC4273976 (ACS chemical biology, 2014).

System: EphA4-dependent growth cone collapse
Conditions: 5 μM peptide, nasal retinal explants; cited from earlier work

Sequence: KYLPYWPVLSSL
- inhibition of ephrin-A5-induced growth cone collapse: blocked
